Measurements reported in patent US20150148551A1, “GENISTEIN FOR REDUCING LEVELS OF STORAGE COMPOUNDS IN THE TREATMENT AND/OR PREVENTION OF LYSOSOMAL STORAGE DISEASES (LSDS)” (3G THERAPEUTICS, INC., priority 2012, published 2015).

How the values were obtained:
NPC1 = experiment: DNA microarray, NPC1 expression in fibroblasts exposed to genistein; format: cell-based, human; settings: for NPC1 fold change Average: 48 h vs DMSO
Description: (§1) The experiments were conducted to characterise the transcriptomic profile of human fibroblast cells exposed to genistein, and in particular to determine the expression of genes encoding lysosomal enzymes involved in metabolism (i.e. synthesis and degradation) of organic substances. The absence or deficiency of these enzymes' activity is responsible for occurrence of various lysosomal storage diseases (LSD) (including MPS). The tested hypothesis assumed that genistein influences the expression of many genes, among which there are genes coding for enzymes required in metabolism of compounds, which are pathologically stored in LSD. The results provide important information regarding genistein action on the molecular level within the range of gene expression modulation by this substance. The experiment was conducted in biological quintuplicates. Human dermal fibroblasts (HDFa) were exposed in vitro for 1, 24 or 48 hours to: 30, 60 or 100 μM of genistein; 0.05% DMSO (K1); or were untreated (control cells) (K2), and total RNA was isolated and analysed.
(§2) Fibroblast cells were grown in Dulbecco (DMEM) medium supplemented with 10% fetal bovine serum (FBS) with the addition of 1% antibiotics and anti-fungal agents at 37° C. in humidified atmosphere of 5% CO2, until the required confluency was obtained.
(§3) To determine the effect of tested compound on the transcriptom of the fibroblast cells, the growth medium was replaced with fresh medium, either non-supplemented (0.05% DMSO), or containing genistein (30, 60 or 100 μM, in 0.05% DMSO). The exposure was done for 1, 24 or 48 hours.
(§4) Total RNA was isolated from fibroblasts using High Pure RNA Isolation Kit according to the protocol and then it was quantitatively evaluated using Quant-It™ RiboGreen® Assay Kit.
(§5) Biotinylated cRNA was prepared using Ambion Total PrepAmp Kit for Illumina arrays.
(§6) Standard hybridization and quantitative image analysis procedures—Illumina hybridization protocol and Illumina scanning protocol, were used.
(§7) Processing of the results was done during data definition, including: background correction (using background subtraction method), normalization (using quantile normalization algorithm with Illumina GenomeStudio software package: gene expression module version 1.9.0) and summarization (using method, which sums the values of signal intensities from a set of probes).

GNPTAB = experiment: DNA microarray, GNPTAB expression in fibroblasts exposed to genistein; format: cell-based, human; settings: for GNPTAB fold change Average: 48 h vs DMSO
Description: as §1, §2, §3, §4, §5, §6, §7

Compound: O=c1c(-c2ccc(O)cc2)coc2cc(O)cc(O)c12 [genistein, 4′,5,7-trihydroxy-3-phenylchromen-4-one]
- NPC1 fold change Average 1h30/1hK1 (NPC1; 30 μM, 1 h vs 0.05% DMSO): 0.9973 fold change
- NPC1 fold change Average (NPC1; 30 μM): 1.567 fold change
- NPC1 fold change Average 1h60/1hK1 (NPC1; 60 μM, 1 h vs 0.05% DMSO): 1.035 fold change
- NPC1 fold change Average (NPC1; 60 μM): 1.875 fold change
- NPC1 fold change Average 1h100/1hK1 (NPC1; 100 μM, 1 h vs 0.05% DMSO): 0.9825 fold change
- NPC1 fold change Average (NPC1; 100 μM): 2.269 fold change
- GNPTAB fold change Average 1h30/1hK1 (GNPTAB; 30 μM, 1 h vs 0.05% DMSO): 0.7878 fold change
- GNPTAB fold change Average (GNPTAB; 30 μM): 1.6393 fold change
- GNPTAB fold change Average 1h60/1hK1 (GNPTAB; 60 μM, 1 h vs 0.05% DMSO): 1.235 fold change
- GNPTAB fold change Average 1h100/1hK1 (GNPTAB; 100 μM, 1 h vs 0.05% DMSO): 0.8628 fold change
- GNPTAB fold change Average (GNPTAB; 100 μM): 1.872 fold change
